The numbers were not newly measured in patent US11077125B2, “Ophthalmic composition containing sulfasalazine and hyaluronic acid” (KUKJE PHARMA CO., LTD., priority 2016, dated 2021), which cites them from elsewhere.

For this data set the following is noted: in water.

In brackets after ≈: the same amount, converted by molar mass.

In general, solubility refers to the dissolved amount per volume that the medium holds. As to `O=C(O)c1cc(/N=N/c2ccc(S(=O)(=O)Nc3ccccn3)cc2)ccc1O` [Sulfasalazine], the solubility was 46.4 µg/mL (≈ 116 µM).
